In publication PMC7997369, “Assessment of the Multifunctional Behavior of Lupin Peptide P7 and Its Metabolite Using an Integrated Strategy” (Journal of Agricultural and Food Chemistry, 2020):
No end group written: not given here.

Tests used:
[1] = target: T1, HMGCoAR (catalytic domain) (Homo sapiens, UniProt P04035); experiment: In vitro HMGCoAR inhibitory activity assay; type: biochemical; conditions: 37 °C, NADPH absorbance at 340 nm, mean ± sd of three independent experiments in triplicate
T1 construct: finally the HMGCoAR (catalytic domain) (2 µL); purchased Sigma
T1 sequence (P04035 426-888 limits assumed): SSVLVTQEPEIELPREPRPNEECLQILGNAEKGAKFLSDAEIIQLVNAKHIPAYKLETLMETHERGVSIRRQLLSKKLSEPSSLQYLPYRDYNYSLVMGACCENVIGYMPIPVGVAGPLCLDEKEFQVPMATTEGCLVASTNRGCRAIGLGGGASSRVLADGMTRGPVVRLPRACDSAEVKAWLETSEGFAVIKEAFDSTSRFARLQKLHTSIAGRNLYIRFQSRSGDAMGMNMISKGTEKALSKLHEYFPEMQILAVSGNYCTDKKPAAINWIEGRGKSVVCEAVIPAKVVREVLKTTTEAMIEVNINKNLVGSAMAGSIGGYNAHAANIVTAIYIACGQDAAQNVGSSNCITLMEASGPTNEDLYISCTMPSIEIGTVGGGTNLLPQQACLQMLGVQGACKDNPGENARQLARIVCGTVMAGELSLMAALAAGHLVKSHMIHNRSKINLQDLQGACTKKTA
Experimental: The assay buffer, NADPH, substrate solution, and HMGCoAR were provided in the HMGCoAR assay kit (Sigma). The experiments were carried out testing LTFPG at 100 and 250 μM at 37 °C in agreement with the conditions previously reported.[8] For further details, see the Supporting Information.
The assay buffer, NADPH, substrate solution, and HMGCoAR were provided in the HMGCoAR Assay Kit (Sigma). The experiments were carried out following the manufacturer’s instructions at 37 °C. In particular, each reaction (200 µL) was prepared adding the reagents in the following order: 1 X assay buffer, LTFPG (100.0 and 250.0 µM) or vehicle (C), the NADPH (4 µL), the substrate solution (12 µL), and finally the HMGCoAR (catalytic domain) (2 µL). Subsequently, the samples were mixed and the absorbance at 340 nm read by a microplate reader Synergy H1 from Biotek at time 0 and 10 min. The HMGCoAR-dependent oxidation of NADPH and the inhibition properties of lupin peptides were measured by absorbance reduction, which is directly proportional to enzyme […]
In vitro ACE-inhibitory assay […]
The evaluation of the inhibition of ACE activity was based on the comparison between the concentrations of HA in the presence or absence of the inhibitor (Inhibitor Blank). The phenomenon of autolysis of HHL to give HA was evaluated by a reaction blank, i.e. a sample with the higher

[2] = target: angiotensin-converting enzyme (ACE) (Homo sapiens, UniProt P12821); experiment: Cellular ACE inhibitory assay in renal HK-2 cells; type: cell-based; set-up: endogenous in cells; conditions: HK-2 cells treated 24 h at 37 °C with P7 0.1–250 μM; ACE activity in cell lysates, fluorescent Abz substrate; mean ± sd of three independent experiments in triplicate
Chain of angiotensin-converting enzyme (ACE) (P12821 30-1306): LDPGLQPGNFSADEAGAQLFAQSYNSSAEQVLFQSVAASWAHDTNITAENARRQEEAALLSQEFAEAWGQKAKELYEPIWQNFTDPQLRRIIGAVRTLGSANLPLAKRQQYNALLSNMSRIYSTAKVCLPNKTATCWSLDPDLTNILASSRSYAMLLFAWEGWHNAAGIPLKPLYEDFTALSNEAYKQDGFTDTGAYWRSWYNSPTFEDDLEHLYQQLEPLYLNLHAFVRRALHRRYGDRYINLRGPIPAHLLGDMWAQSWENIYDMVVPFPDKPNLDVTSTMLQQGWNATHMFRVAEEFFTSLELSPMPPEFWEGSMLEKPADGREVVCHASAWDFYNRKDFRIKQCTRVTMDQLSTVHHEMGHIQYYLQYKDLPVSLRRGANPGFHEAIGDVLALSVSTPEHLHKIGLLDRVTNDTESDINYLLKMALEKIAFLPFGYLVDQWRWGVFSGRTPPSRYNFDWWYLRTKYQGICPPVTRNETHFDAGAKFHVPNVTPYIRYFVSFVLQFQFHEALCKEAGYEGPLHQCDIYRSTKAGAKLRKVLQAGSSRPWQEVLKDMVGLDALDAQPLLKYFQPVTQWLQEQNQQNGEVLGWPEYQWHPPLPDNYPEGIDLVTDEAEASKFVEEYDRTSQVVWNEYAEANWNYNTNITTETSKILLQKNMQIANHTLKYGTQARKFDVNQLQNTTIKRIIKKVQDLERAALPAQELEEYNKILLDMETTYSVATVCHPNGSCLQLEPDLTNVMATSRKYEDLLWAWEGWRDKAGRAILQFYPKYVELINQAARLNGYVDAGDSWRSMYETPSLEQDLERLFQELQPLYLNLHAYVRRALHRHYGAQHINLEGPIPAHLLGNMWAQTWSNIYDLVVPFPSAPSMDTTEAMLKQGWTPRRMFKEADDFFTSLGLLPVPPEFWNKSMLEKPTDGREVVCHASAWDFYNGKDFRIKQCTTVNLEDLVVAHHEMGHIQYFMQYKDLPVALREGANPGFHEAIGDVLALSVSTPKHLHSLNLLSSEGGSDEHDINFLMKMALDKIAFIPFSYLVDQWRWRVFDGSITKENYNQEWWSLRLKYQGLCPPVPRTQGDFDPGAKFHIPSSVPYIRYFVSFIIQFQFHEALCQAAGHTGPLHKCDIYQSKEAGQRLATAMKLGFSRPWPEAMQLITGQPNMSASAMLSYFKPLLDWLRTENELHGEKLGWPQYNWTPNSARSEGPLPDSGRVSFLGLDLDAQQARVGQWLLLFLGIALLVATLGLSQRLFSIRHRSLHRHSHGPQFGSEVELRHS
Experimental: HK-2 cells from the American Type Culture Collection (ATCC) were cultured using Dulbecco’s modified Eagle’s medium–F12 (DMEM–F12) containing 25 mM glucose, 4 mM stable L-glutamine, 100 units […] penicillin, and 100 μg […] streptomycin, supplemented with 10% heat-inactivated fetal bovine serum (FBS, Hyclone Laboratories, Logan, UT, U.S.A.). […]
For the experiments, HK-2 and Caco-2 cells were seeded on 96-well plates at a density of 5 × 10^4 cells/well for 24 h. […] Total proteins were quantified by the Bradford method, and 2 μL of the supernatant (the equivalent of 2 μg of total proteins) was added to 18 μL of ACE1 lysis buffer in each well in a black 96-well plate with a clear bottom. […] Then, 20 μL of diluted ACE1 substrate [o-aminobenzoyl peptide (Abz-based peptide) substrate, 4% of ACE1 substrate in the assay buffer] was added in each well, except the background well, and the fluorescence (excitation/emission of 330/430 nm) was measured in a kinetic mode for 10 min at 37 °C.

[3] = target: T1, HMGCoAR (catalytic domain); conditions: read-out: IC50, in vitro HMGCoAR activity; cited from earlier work
Excerpt: To express their activity in vivo, peptides masked within a protein sequence need not only be released by specific and selective proteases but may also be absorbed at the intestinal level and enter blood circulation to reach the target organs.[2] Differentiated Caco-2 cells still represent the best available model system for intestinal transport studies.[3]−[5] […] To function as a competitive inhibitor of HMGCoAR, a peptide should mimic the hydroxymethylglutaryl moiety. To achieve this goal, the conformation and side chain groups play a more important role than the total hydrophobicity. Moreover, the correlation of the inhibitory activity with the peptide length has not yet been established, while it has been confirmed that a ...

Substance: LTFPG [LTFPG]
- inhibition at 100 µM ([1]; 100 μM): 4.7 ± 0.3%
- inhibition at 250 µM ([1]; 250 μM): 10.3 ± 0.8%

Substance: LTFPGSAED [P7]
- IC50 [2]: 79.6 µM
- IC50 [3]: 68.4 µM
